# Assay results as given in patent US12459985B2, “G-protein-coupled receptor internal sensors” (THE REGENTS OF THE UNIVERSITY OF CALIFORNIA, priority 2016, dated 2025).
# What was measured:
# B2AR [1] = molecular target: T1, B2AR (Homo sapiens, UniProt P07550, C265Q/D251A/E249T/E27Q/F240D/F264D/G16R/G238K/G257K/INS236[…]/INS254[…]/K235L/K263H/N244L/Q243V/Q247F/Q250A/R253I/R259E/R260Y/S246E/S261N/S262N/V242M); assay type: cell-based; details: universal module 1 in B2AR; 10 μM
# T1 construct: expressed in transfected cells
# [2] = molecular target: Beta2AR with a cpGFP integrated into the third intracellular loop (Homo sapiens, UniProt P07550)
# 5HT2A receptor = 5HT2A receptor (Homo sapiens, UniProt P28223, DEL264-288/DEL297-315/INS291[…]/INS295[…]/K293E/S316L); assay: 5HT2A receptor sensor with universal module 2, fluorescence response; assay type: cell-based; details: universal module 2 in 5HT2A receptor
# 5HT2A receptor, sequence (P28223 with tags, fused parts or gaps with the stated changes): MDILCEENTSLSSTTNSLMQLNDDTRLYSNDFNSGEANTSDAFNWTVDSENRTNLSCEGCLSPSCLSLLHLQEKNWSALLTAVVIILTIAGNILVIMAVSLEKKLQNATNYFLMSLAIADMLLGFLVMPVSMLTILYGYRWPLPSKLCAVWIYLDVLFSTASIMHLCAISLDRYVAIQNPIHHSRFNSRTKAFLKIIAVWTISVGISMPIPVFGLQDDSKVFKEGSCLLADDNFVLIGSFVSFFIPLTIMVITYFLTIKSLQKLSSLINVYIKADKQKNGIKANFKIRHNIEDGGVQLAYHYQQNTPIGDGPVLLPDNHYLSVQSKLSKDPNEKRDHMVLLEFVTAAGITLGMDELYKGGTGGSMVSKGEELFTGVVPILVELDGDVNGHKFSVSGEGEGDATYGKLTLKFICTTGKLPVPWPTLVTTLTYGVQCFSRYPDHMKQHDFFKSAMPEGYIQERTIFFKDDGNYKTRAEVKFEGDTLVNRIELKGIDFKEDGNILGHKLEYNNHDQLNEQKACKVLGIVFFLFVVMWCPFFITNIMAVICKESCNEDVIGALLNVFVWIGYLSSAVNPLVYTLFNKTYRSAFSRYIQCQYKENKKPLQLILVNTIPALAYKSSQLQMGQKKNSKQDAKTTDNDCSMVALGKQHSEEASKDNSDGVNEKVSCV
# Mu-opioid receptor = assay: Opioid sensor (cpGFP in Loop3 of the Mu-opioid receptor) response in HEK293T cells; assay type: cell-based, human
# B2AR [3] = molecular target: B2AR (Homo sapiens, UniProt P07550, C265Q/D251A/E249T/E27Q/F240D/F264D/G16R/G238K/G257K/INS233[…]/INS254[…]/K232L/K235P/K263H/L230S/N244L/Q229L/Q231S/Q243V/Q247F/Q250A/R253I/R259E/R260Y/S236N/S246E/S261N/S262N/V242M); assay: B2AR sensor with universal module 2, fluorescence response; assay type: cell-based; details: inserted into EAKR-deleted third intracellular loop residues-KEHK of B2AR
molecule,measurement,setting,value
NC[C@H](O)c1ccc(O)c(O)c1 [norepinephrine],ΔF/F,B2AR [1],150%
same,τ½ON,"[2]; time constant of association, saturating conditions (1 μM drug)",29.62 s
same,τ½OFF,"[2]; time constant of dissociation, saturating conditions (1 μM drug)",106.91 s
NCCc1c[nH]c2ccc(O)cc12 [Serotonin],ΔF/F response,5HT2A receptor,~30%
NCCc1ccc(O)c(O)c1 [Dopamine],specific response of the sensor,"[2]; 50 μM, non-Beta2AR ligands",did not detect any specific response
LSSLI-cpGFP-NHDQL [Universal module 2],ΔF/F,B2AR [3],100%
